Laboratory results as given in patent US20260217701A1, “SELECTIVE BET INHIBITORS AND USES THEREOF” (Tay Therapeutics Limited, priority 2022, published 2026).
Values joined by “and” are separate entries in the source; they are usually repeats but may differ in a detail not shown here. Identical values can stand only once.

Assay: CIA study: animal body weight
Details: for Average animal body weight percent change: CIA; for Animal body weight percent change (%): Group 3 (CIA + Dexamethasone), individual animals

Structure (SMILES): C[C@@H]1C[C@H]2[C@@H]3CCC4=CC(=O)C=C[C@]4(C)[C@@]3(F)[C@@H](O)C[C@]2(C)[C@@]1(O)C(=O)CO [Dexamethasone, dexamethasone]
- Average animal body weight percent change (Day 0): 0.00%
- Animal body weight percent change (%) (Day 0): 0.00%
- Average animal body weight percent change (Day 1): −2.80%
- Animal body weight percent change (%) (Day 1): 0.66% and −7.41% and −1.72% and −2.37% and 1.20% and −6.21%
- Average animal body weight percent change (Day 2): −3.22%
- Animal body weight percent change (%) (Day 2): −0.66% and −6.79% and 1.15% and −1.78% and −3.01% and −8.07%
- Average animal body weight percent change (Day 3): −4.37%
- Animal body weight percent change (%) (Day 3): −1.99% and 11.11% and 0.57% and −2.96% and −2.41% and −9.94%
- Average animal body weight percent change (Day 4): −4.95%
- Animal body weight percent change (%) (Day 4): −2.65% and −9.26% and −2.30% and −5.33% and −6.02%
- Average animal body weight percent change (Day 5): −4.95%
- Animal body weight percent change (%) (Day 5): −2.65% and −8.02% and −5.17% and −2.96% and −4.82%
- Average animal body weight percent change (Day 6): −4.41%
- Animal body weight percent change (%) (Day 6): −2.65% and 6.17% and −1.72% and −4.73% and −6.63%
- Average animal body weight percent change (Day 7): −3.35%
- Animal body weight percent change (%) (Day 7): −0.66% and −5.56% and 2.30% and −4.14% and −3.61%
- Average animal body weight percent change (Day 8): −3.90%
- Average animal body weight percent change (Day 9): −1.84%
- Average animal body weight percent change (Day 10): −2.30%
- Average animal body weight percent change (Day 11): −1.24%
- Average animal body weight percent change (Day 12): −1.18%
- Average animal body weight percent change (Day 13): −0.91%
- Average animal body weight percent change (Day 14): −1.24%
- Average animal body weight percent change (Day 15): 0.43%
- Animal body weight percent change (%) (Day 15): 9.93% and −3.09% and 2.30% and 0.59% and 1.20% and −6.83% and 2.33% and −0.63%
- Average animal body weight percent change (Day 16): −0.57%
- Animal body weight percent change (%) (Day 16): 3.97% and −5.56% and 7.47% and −0.59% and −4.22% and −8.70% and 1.16% and 1.88%
- Average animal body weight percent change (Day 17): 0.62%
- Animal body weight percent change (%) (Day 17): 5.96% and −4.32% and 8.05% and −2.37% and 0.60% and −6.83% and −1.16% and 5.00%
- Average animal body weight percent change (Day 18): 1.02%
- Animal body weight percent change (%) (Day 18): 3.97% and −6.17% and 8.62% and −2.37% and 0.00% and −5.59% and 4.07% and 5.63%
- Average animal body weight percent change (Day 19): 1.53%
- Animal body weight percent change (%) (Day 19): 7.28% and −9.26% and 10.34% and 0.59% and 1.20% and −5.59% and 5.81% and 1.88%
- Average animal body weight percent change (Day 20): 1.66%
- Animal body weight percent change (%) (Day 20): 7.95% and −3.70% and 5.75% and 2.37% and 0.60% and 4.35% and 4.65% and 0.00%
- Average animal body weight percent change (Day 21): 1.30%
- Animal body weight percent change (%) (Day 21): 8.61% and −3.70% and 7.47% and 0.00% and −3.01% and −5.59% and 2.91% and 3.75%
